What was measured:
[1] = MB50 ELISA of biotinylated peptides on hair; assay type: binding, human; settings: for EC50: biotinylated peptide with C-terminal amidated cysteine; for binding affinity for hair (in words): respective substrate hair
Protocol: (§1) Hair-binding and skin-binding peptides were synthesized by Syn Pep Inc. (Dublin, Calif.). The peptides were biotinylated by adding a biotinylated lysine residue at the C-terminus of the amino acid binding sequences for detection purposes and an amidated cysteine was added to the C-terminus of the sequence.
(§2) For hair samples, the procedure used was as follows. The setup of the surface specific 96-well system used was the same as that described in Example 5. Briefly, the 96-wells with hair or pig skin surfaces were blocked with blocking buffer (SUPERBLOCK™ from Pierce Chemical Co., Rockford, Ill.) at room temperature for 1 h, followed by six washes with TBST-0.5%, 2 min each, at room temperature. Various concentrations of biotinylated, binding peptide were added to each well, incubated for 15 min at 37° C., and washed six times with TBST-0.5%, 2 min each, at room temperature. Then, streptavidin-horseradish peroxidase (HRP) conjugate (Pierce Chemical Co.) was added to each well (1.0 μg per well), and incubated for 1 h at room temperature. After the incubation, the wells were washed six times with TBST-0.5%, 2 min each at room temperature. Finally, the color development and the measurement were performed as described in Example 5.
(§3) The results were plotted as A450 versus the concentration of peptide using GraphPad Prism 4.0 (GraphPad Software, Inc., San Diego, Calif.).

[2] = Phage ELISA on hair surfaces; assay type: binding, human; settings: for Hair A450: phage clone on hair, 37° C. 15 min, anti-M13 HRP, mean of at least three replicates
Protocol: (§4) Enzyme-linked immunosorbent assay (ELISA) was used to evaluate the hair-binding specificity of selected phage-peptide clones. Phage-peptide clones identified in Examples 1 and 2 along with a randomly chosen control G-F9, KHGPDLLRSAPR (given as SEQ ID NO:63) were amplified. More than 10^14 pfu phages were added to pre-blocked hair surfaces.
(§5) A unique hair or pig skin-bottom 96-well apparatus was created by applying one layer of Parafilm® under the top 96-well block of a Minifold I Dot-Blot System (Schleicher & Schuell, Inc., Keene, N.H.), adding hair or a layer of hairless pig skin on top of the Parafilm® cover, and then tightening the apparatus. For each clone to be tested, the hair-covered well was incubated for 1 h at room temperature with 200 μL of blocking buffer, consisting of 2% non-fat dry milk (Schleicher & Schuell, Inc.) in TBS. A second Minifold system with pig skin at the bottom of the wells was treated with blocking buffer simultaneously to serve as a control. The blocking buffer was removed by inverting the systems and blotting them dry with paper towels. The systems were rinsed 6 times with wash buffer consisting of TBST-0.05%. The wells were filled with 200 μL of TBST-0.5% containing 1 mg/mL BSA and then 10 μL (over 10^12 copies) of purified phage stock was added to each well. The samples were incubated at 37° C. for 15 min with slow shaking. The non-binding phage was removed by washing the wells 10 to 20 times with TBST-0.5%. Then, 100 μL of horseradish peroxidase/anti-M13 antibody conjugate (Amersham USA, Piscataway, N.J.), diluted 1:500 in the blocking buffer, was added to each well and incubated for 1 h at room temperature. The conjugate solution was removed and the wells were washed 6 times with TBST-0.05%. TMB substrate (200 μL), obtained from Pierce Biotechnology (Rockford, Ill.) was added to each well and the color was allowed to develop for between 5 to 30 min, typically for 10 min, at room temperature. Then, stop solution (200 μL of 2 M H2SO4) was added to each well and the solution was transferred to a 96-well plate and the A450 was measured using a microplate spectrophotometer (Molecular Devices, Sunnyvale, Calif.). The resulting absorbance values, reported as the mean of at least three replicates, and the standard error of the mean (SEM) are given in Table 10.

[3] = Phage ELISA on pig skin surfaces (specificity control); assay type: binding; settings: for Pig Skin A450: phage clone on pig skin, 37° C. 15 min, anti-M13 HRP, mean of at least three replicates
Protocol: as §4, §5

[4] = Titer-based phage binding assay on normal hair; set-up: species or system human; settings: output pfu retained by 10 mg normal hair; input 10^14 pfu of phage clone; acid-eluted phage
Protocol: Phage clones displaying specific peptides were used for comparing the binding characteristics of different peptide sequences. A titer-based assay was used to quantify the phage binding. This assay measures the output pfu retained by 10 mg of hair surfaces, having a signal to noise ratio of 10^3 to 10^4. The input for all the phage clones was 10^14 pfu. It should be emphasized that this assay measures the peptide-expressing phage particle, rather than peptide binding.
Normal hairs were cut into 0.5 cm lengths and 10 mg of the cut hair was placed in each well of a 96-well filter plate (Qiagen). Then, the wells were filled with blocking buffer containing 1 mg/mL BSA in TBST-0.5% and incubated for 1 h at 4° C. The hairs were washed 5 times with TBST-0.5%. The wells were then filled with 1 mL of TBST-0.5% containing 1 mg/mL BSA and then purified phage clones (10^14 pfu) were added to each well. The hair samples were incubated for 15 min at room temperature and then washed 10 times with TBST-0.5%. The hairs were transferred to a clean well and 1.0 mL of a non-specific elution buffer, consisting of 1 mg/mL BSA in 0.2 M Glycine-HCl at pH 2.2, was added to each well. The samples were incubated for 10 min and then 160 μL of neutralization buffer (1 M Tris-HCl, pH 9.2) was added to each well. The eluted phages from each well were transferred to a new tube for titering and sequencing analysis.
To titer the bound phages, the eluted phage was diluted with SM buffer to prepare 10-fold serial dilutions of 10^1 to 10^8. A 10 μL aliquot of each dilution was incubated with 200 μL of mid-log phase E. coli ER2738 (New England BioLabs), and grown in LB medium for 20 min and then mixed with 3 mL of agarose top (LB medium with 5 mM MgCl2, and 0.7% agarose) at 45° C. This mixture was spread onto a LB medium/IPTG/Xgal plate (LB medium with 15 g/L agar, 0.05 g/L IPTG, and 0.04 g/L Xgal) and incubated overnight at 37° C.

[5] = MB50 ELISA of biotinylated peptides on pig skin; assay type: binding; settings: for EC50: Substrate Pig Skin, biotinylated peptide with C-terminal amidated cysteine; for binding affinity for skin (in words): pig skin
Protocol: as §1, §2
For the measurement of MB50 of the peptide-skin complexes, the following procedure was used. First, the pigskin was treated to block the endogenous biotin in the skin. This was done by adding streptavidin to the blocking buffer. After blocking the pigskin sample, the skin was treated with D-biotin to block the excess streptavidin binding sites. The remaining steps were identical to those used for the hair samples.
as §3

[6] = Peptide competition ELISA on normal hair; assay type: binding, human
Protocol: The purpose of this Example was to test the peptide binding site specificity and affinity of the hair-binding peptide D21 using a competition ELISA. The ELISA assay only detects phage particles that remain bound to the hair surface.
The synthetic hair-binding peptide D21, given as SEQ ID NO:46, was synthesized by SynPep (Dublin, Calif.). As a control, an unrelated synthetic skin-binding peptide, given as SEQ ID NO:61, was added to the system. The experimental conditions were similar to those used in the ELISA method described in Example 5. Briefly, 100 μL of Binding Buffer (1×TBS with 0.1% Tween®20 and 1 mg/mL BSA) and 10^11 pfu of the pure D21 phage particles were added to each well of the 96-well filter plate, which contained a sample of normal hair. The synthetic peptide (100 μg) was added to each well (corresponding to concentration of 0.8 mM). The reactions were carried out at room temperature for 1 h with gentle shaking, followed by five washes with TBST-0.5%. The remaining steps were identical to the those used in the ELISA method described in Example 5. Each individual ELISA test was performed in triplicate; the values in Table 11 are the means of the triplicate determinations.

Q: With LPRIANTWSPS [Clone F35] as the substance, how does the EC50 ([1]; Substrate Bleached Hair) read?
A: Its EC50 is 3 µM.

Q: What about the “binding affinity for hair (in words)” value [1] of the same substance?
A: The value was “high”.

Q: Which “Hair A450” value [2] does the source give for “GPHDTSSGGVRPNLHHTSKKEKRENRKVPFYSHSVTSRGNV (Hair-binding peptide) [Clone D5]” here?
A: The value was 0.652.

Q: What about the “Pig Skin A450” value [3] of the same substance?
A: The value was 0.104.

Q: What about the “Phage Titer” value [4] of the same substance?
A: Its value is 1.67 × 10^8.

Q: For TPPELLHGDPRS [Clone I-B5], which EC50 ([1]; Substrate Normal and Bleached Hair) is on record?
A: Its EC50 is 0.3 µM.

Q: And the “binding affinity for hair (in words)” value [1]?
A: Its value is “high”.

Q: What about the EC50 [5] of the same substance?
A: Its EC50 is over 100 µM.

Q: And the “binding affinity for skin (in words)” value [5]?
A: Its value is “relatively low”.

Q: Which EC50 [5] does the source give for TPFHSPENAPGS [SEQ ID NO: 61] here?
A: The EC50 was 0.7 µM.

Q: And the “binding affinity for skin (in words)” value [5]?
A: The value was “high”.

Q: For “AKTHKHPAPSYS (Hair-binding peptide) [Clone C13]”, which “Hair A450” value [2] is on record?
A: The value was 0.375.

Q: What about the “Pig Skin A450” value [3] of the same substance?
A: The value was 0.024.

Q: Which “Phage Titer” value [4] does the source give for HPVWPAI [Clone D] here?
A: Its value is 8.20 × 10^4.

Q: For “KHGPDLLRSAPR (Control peptide) [Clone G-F9, reference compound]”, which “Hair A450” value [2] is on record?
A: The value was 0.074.

Q: And the “Pig Skin A450” value [3]?
A: Its value is −0.137.

Q: With “HPMSAPR (Hair-binding peptide) [Clone I]” as the substance, how does the “Phage Titer” value [4] read?
A: The value was 1.17 × 10^6.

Q: With TAATTSP [Clone B1] as the substance, how does the “Hair A450” value [2] read?
A: The value was 0.42.

Q: What about the “Pig Skin A450” value [3] of the same substance?
A: Its value is 0.127.

Q: For MPKYYLQ [Clone J], which “Phage Titer” value [4] is on record?
A: The value was 1.24 × 10^6.

Q: With “HLTVPWRGGGSAVPFYSHSQITLPNH (Hair-binding peptide) [Clone F]” as the substance, how does the “Phage Titer” value [4] read?
A: Its value is 1.11 × 10^6.

Q: With “NSPGYQADSVAIG (Hair-binding peptide) [Clone D30]” as the substance, how does the “Hair A450” value [2] read?
A: The value was 0.414.

Q: And the “Pig Skin A450” value [3]?
A: Its value is 0.287.

Q: For “TPALDGLRQPLR (Hair-binding peptide) [Clone C18]”, which “Hair A450” value [2] is on record?
A: The value was 0.34.

Q: And the “Pig Skin A450” value [3]?
A: The value was 0.132.

Q: For RTNAADHPAAVT [Clone D21], which “selectivity for hair compared to pig skin” value ([2]; phage ELISA hair vs pig skin) is on record?
A: The value was “highest selectivity for hair”.

Q: And the “binding affinity for hair (in words)” value ([2]; phage ELISA, versus control G-F9)?
A: Its value is “very strong affinity for hair”.

Q: And the “Hair A450” value [2]?
A: The value was 1.051.

Q: What about the “affinity for pig skin (in words)” value ([3]; phage ELISA) of the same substance?
A: The value was “very low affinity for pig skin”.

Q: And the “Pig Skin A450” value [3]?
A: Its value is 0.04.

Q: And the EC50 ([1]; Substrate Normal Hair)?
A: Its EC50 is 2 µM.

Q: And the “binding affinity for hair (in words)” value [1]?
A: The value was “high”.

Q: What about the A450 ([6]; 10^11 pfu D21 phage on normal hair, synthetic peptide 100 μg per well (0.8 mM), mean of triplicate) of the same substance?
A: The A450 was 1.878.

Q: What about the “competition with phage clone D21 for hair binding sites (in words)” value ([6]; synthetic peptide 0.8 mM) of the same substance?
A: The value was “does compete with the phage clone D21 for the same binding sites on the hair surface”.

Q: And the EC50 [5]?
A: Its EC50 is 40 µM.

Q: What about the “binding affinity for skin (in words)” value [5] of the same substance?
A: Its value is “relatively low”.

Q: With LGIPQNL [Clone D39] as the substance, how does the “Hair A450” value [2] read?
A: The value was 0.685.

Q: What about the “Pig Skin A450” value [3] of the same substance?
A: Its value is 0.086.

Q: For “TDMQAPTKSYSN (Hair-binding peptide) [Clone C5]”, which “Hair A450” value [2] is on record?
A: The value was 0.548.

Q: What about the “Pig Skin A450” value [3] of the same substance?
A: The value was 0.047.

Q: What does the source list for “SLNWVTIPGPKI (Hair-binding peptide) [Clone C10]”?
A: Hair A450 [2]: 0.542; Pig Skin A450 [3]: 0.032

Q: Which “Phage Titer” value [4] does the source give for MPLYYLQ [Clone E] here?
A: The value was 1.70 × 10^5.

Q: With DLHTVYH [Clone A] as the substance, how does the “Phage Titer” value [4] read?
A: Its value is 7.50 × 10^4.

Q: Which “Phage Titer” value [4] does the source give for HIKPPTR [Clone B] here?
A: Its value is 1.21 × 10^5.

Q: With KHPTYRQ [Clone H] as the substance, how does the “Phage Titer” value [4] read?
A: Its value is 1.30 × 10^6.

Q: For MHAHSIA [Clone A36], which “Hair A450” value [2] is on record?
A: The value was 0.585.

Q: And the “Pig Skin A450” value [3]?
A: Its value is 0.173.

Q: What does the source list for “EQISGSLVAAPW (Hair-binding peptide) [Clone A5]”?
A: Hair A450 [2]: 0.431; Pig Skin A450 [3]: 0.256

Reference: patent US8475772B2, “Peptide-based oral care surface reagents for personal care” (E I du Pont de Nemours and Company, priority 2003, dated 2013)
